Test results: patent US20230085307A1, “PYRIDAZINONE COMPOUND AND HERBICIDE” (NISSAN CHEMICAL CORPORATION, priority 2019, published 2023)

Columns and labels:
[1] = system: blackgrass; experiment: Test Example 5: herbicidal effect by foliage application, plastic box (Table 20, symbol J); assay type: in vivo, blackgrass (Alopecurus myosuroides); details: foliage application, 320 g/ha, evaluated three weeks after application
In short: (§1)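 Post-emergence foliar test in sterilized diluvial soil. Compound applied as water-diluted emulsion at a predetermined rate to 14-day-old plants; evaluation at three weeks.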

[2] = system: lambsquarters; experiment: Test Example 4: herbicidal effect by soil treatment (Table 19, symbol O); assay type: in vivo, lambsquarters (Chenopodium album); details: 320 g/ha
In short: (§2)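 Scoring uses the grading scale of an earlier test, three weeks post-application. Treatment consists of spraying a diluted emulsion formulation across the surface of sterilized diluvial soil in which seeds are buried near 1.5 cm deep; boxes are kept in a greenhouse between 25° C. and 30° C.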

[3] = system: southern crabgrass; experiment: Test Example 4: herbicidal effect by soil treatment (Table 19, symbol F); assay type: in vivo, southern crabgrass (Digitaria ciliaris); details: 320 g/ha
In short: as §2

[4] = system: Chinese sprangletop; experiment: Test Example 3: herbicidal effect by foliage application, Wagner pot (Table 18, symbol D); assay type: in vivo, chinese sprangletop (Leptochloa chinensis); details: 320 g/ha
In short: (§3)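 Plants were sown in alluvial soil held under 0.1–0.5 cm standing water and grown 14 days in a greenhouse at 25–30 °C. An emulsifiable formulation, water-diluted to the set dose, was then sprayed onto the foliage, and effects were scored three weeks later using previously defined criteria.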

[5] = system: redroot pigweed; experiment: Test Example 4: herbicidal effect by soil treatment (Table 19, symbol N); assay type: in vivo, redroot pigweed (Amaranthus retroflexus); details: 320 g/ha
In short: as §2

[6] = system: Italian ryegrass; experiment: Test Example 5: herbicidal effect by foliage application, plastic box (Table 20, symbol K); assay type: in vivo, Italian ryegrass (Lolium multiflorum); details: foliage application, 320 g/ha, evaluated three weeks after application
In short: as §1

[7] = system: blackgrass; experiment: Test Example 4: herbicidal effect by soil treatment (Table 19, symbol J); assay type: in vivo, blackgrass (Alopecurus myosuroides); details: 320 g/ha
In short: as §2

[8] = system: persian speedwell; experiment: Test Example 5: herbicidal effect by foliage application, plastic box (Table 20, symbol R); assay type: in vivo, Persian speedwell (Veronica persica); details: foliage application, 320 g/ha, evaluated three weeks after application
In short: as §1

[9] = system: barnyard grass; experiment: Test Example 3: herbicidal effect by foliage application, Wagner pot (Table 18, symbol H); assay type: in vivo, barnyard grass (Echinochloa crus-galli); details: 320 g/ha
In short: as §3

[10] = system: barnyard grass; experiment: Test Example 5: herbicidal effect by foliage application, plastic box (Table 20, symbol H); assay type: in vivo, barnyard grass (Echinochloa crus-galli); details: foliage application, 320 g/ha, evaluated three weeks after application
In short: as §1

[11] = system: late watergrass; experiment: Test Example 2: herbicidal activity, application during weed generation under submerged conditions (Table 17, symbol A); assay type: in vivo, late watergrass (Echinochloa oryzicola); details: AAH 320 g/ha; application during weed generation, submerged conditions
In short: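 3-wk visual-criteria score after one water-surface dose. Emulsion formulation, water-diluted to set rate; applied at 1–2 leaf stage; alluvial soil, 4 cm standing water; seeds co-sown; greenhouse 25–30° C.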

[12] = system: redroot pigweed; experiment: Test Example 5: herbicidal effect by foliage application, plastic box (Table 20, symbol N); assay type: in vivo, redroot pigweed (Amaranthus retroflexus); details: foliage application, 320 g/ha, evaluated three weeks after application
In short: as §1

[13] = system: wild oat; experiment: Test Example 5: herbicidal effect by foliage application, plastic box (Table 20, symbol I); assay type: in vivo, wild oat (Avena fatua); details: foliage application, 320 g/ha, evaluated three weeks after application
In short: as §1

[14] = system: velvetleaf; experiment: Test Example 5: herbicidal effect by foliage application, plastic box (Table 20, symbol M); assay type: in vivo, velvetleaf (Abutilon theophrasti); details: foliage application, 320 g/ha, evaluated three weeks after application
In short: as §1

[15] = system: chickweed; experiment: Test Example 4: herbicidal effect by soil treatment (Table 19, symbol P); assay type: in vivo, common chickweed (Stellaria media); details: 320 g/ha
In short: as §2

[16] = system: barnyard grass; experiment: Test Example 4: herbicidal effect by soil treatment (Table 19, symbol H); assay type: in vivo, barnyard grass (Echinochloa crus-galli); details: 320 g/ha
In short: as §2

Row | SMILES | herbicidal effect on J: blackgrass [1] | herbicidal effect rating, O: lambsquarters [2] | herbicidal effect rating, F: southern crabgrass [3] | herbicidal effect on D (Chinese sprangletop), rating 0-5 [4] | herbicidal effect rating, N: redroot pigweed [5] | herbicidal effect on K: Italian ryegrass [6] | herbicidal effect rating, J: blackgrass [7] | herbicidal effect on R: persian speedwell [8] | herbicidal effect on H (barnyard grass), rating 0-5 [9] | herbicidal effect on H: barnyard grass [10] | herbicidal effect rating, A: late watergrass [11] | herbicidal effect on N: redroot pigweed [12] | herbicidal effect on I: wild oat [13] | herbicidal effect on M: velvetleaf [14] | herbicidal effect rating, P: chickweed [15] | herbicidal effect rating, H: barnyard grass [16]
1 | CCCC(=O)Oc1c(C)nn(C)c(=O)c1-c1c(-c2ccc(SC)cc2)sc2ccc(F)cc12 [2-077] | 4 (Herbicidal rate of 70% or more and less than 90%) | 5 (Herbicidal rate of 90% or more (almost completely withered)) | 2 (Herbicidal rate of 20% or more and less than 40%) | 5 (Herbicidal rate of 90% or more (almost completely withered)) | 5 (Herbicidal rate of 90% or more (almost completely withered)) | 5 (Herbicidal rate of 90% or more (almost completely withered)) | 2 (Herbicidal rate of 20% or more and less than 40%) | 5 (Herbicidal rate of 90% or more (almost completely withered)) | 5 (Herbicidal rate of 90% or more (almost completely withered)) | 5 (Herbicidal rate of 90% or more (almost completely withered)) | 4 (Herbicidal rate of 70% or more and less than 90%) | 5 (Herbicidal rate of 90% or more (almost completely withered)) | 5 (Herbicidal rate of 90% or more (almost completely withered)) | 5 (Herbicidal rate of 90% or more (almost completely withered)) | 5 (Herbicidal rate of 90% or more (almost completely withered)) | 3 (Herbicidal rate of 40% or more and less than 70%)
2 | CON=C(C)c1ccc(-c2sc3ccc(F)cc3c2-c2c(O)c(C)nn(C)c2=O)cc1 [2-079] | 3 (Herbicidal rate of 40% or more and less than 70%) | 5 (Herbicidal rate of 90% or more (almost completely withered)) | 5 (Herbicidal rate of 90% or more (almost completely withered)) | 4 (Herbicidal rate of 70% or more and less than 90%) | 5 (Herbicidal rate of 90% or more (almost completely withered)) | 5 (Herbicidal rate of 90% or more (almost completely withered)) | 0 (Herbicidal rate of 5% or less (almost no effect)) | 5 (Herbicidal rate of 90% or more (almost completely withered)) | 5 (Herbicidal rate of 90% or more (almost completely withered)) | 5 (Herbicidal rate of 90% or more (almost completely withered)) | 0 (Herbicidal rate of 5% or less (almost no effect)) | 5 (Herbicidal rate of 90% or more (almost completely withered)) | 5 (Herbicidal rate of 90% or more (almost completely withered)) | 5 (Herbicidal rate of 90% or more (almost completely withered)) | 2 (Herbicidal rate of 20% or more and less than 40%) | 4 (Herbicidal rate of 70% or more and less than 90%)
3 | CCCC(=O)Oc1c(C)nn(C)c(=O)c1-c1c(-c2ccc(C(C)=NOC)cc2)sc2ccc(F)cc12 [2-080] | 5 (Herbicidal rate of 90% or more (almost completely withered)) | 5 (Herbicidal rate of 90% or more (almost completely withered)) | 2 (Herbicidal rate of 20% or more and less than 40%) | 5 (Herbicidal rate of 90% or more (almost completely withered)) | 5 (Herbicidal rate of 90% or more (almost completely withered)) | 5 (Herbicidal rate of 90% or more (almost completely withered)) | 1 (Herbicidal rate of 5% or more and less than 20%) | 5 (Herbicidal rate of 90% or more (almost completely withered)) | 5 (Herbicidal rate of 90% or more (almost completely withered)) | 5 (Herbicidal rate of 90% or more (almost completely withered)) | 2 (Herbicidal rate of 20% or more and less than 40%) | 5 (Herbicidal rate of 90% or more (almost completely withered)) | 5 (Herbicidal rate of 90% or more (almost completely withered)) | 5 (Herbicidal rate of 90% or more (almost completely withered)) | 3 (Herbicidal rate of 40% or more and less than 70%) | 2 (Herbicidal rate of 20% or more and less than 40%)
4 | CCOc1cc(F)ccc1-c1sc2ccc(F)cc2c1-c1c(O)c(C)nn(C)c1=O [2-084] | 5 (Herbicidal rate of 90% or more (almost completely withered)) | 5 (Herbicidal rate of 90% or more (almost completely withered)) | 5 (Herbicidal rate of 90% or more (almost completely withered)) | 4 (Herbicidal rate of 70% or more and less than 90%) | 5 (Herbicidal rate of 90% or more (almost completely withered)) | 3 (Herbicidal rate of 40% or more and less than 70%) | 2 (Herbicidal rate of 20% or more and less than 40%) | 5 (Herbicidal rate of 90% or more (almost completely withered)) | 5 (Herbicidal rate of 90% or more (almost completely withered)) | 5 (Herbicidal rate of 90% or more (almost completely withered)) | 2 (Herbicidal rate of 20% or more and less than 40%) | 5 (Herbicidal rate of 90% or more (almost completely withered)) | 4 (Herbicidal rate of 70% or more and less than 90%) | 5 (Herbicidal rate of 90% or more (almost completely withered)) | 4 (Herbicidal rate of 70% or more and less than 90%) | 4 (Herbicidal rate of 70% or more and less than 90%)
5 | CCCC(=O)Oc1c(C)nn(C)c(=O)c1-c1c(-c2ccc(F)cc2OCC)sc2ccc(F)cc12 [2-085] | 1 (Herbicidal rate of 5% or more and less than 20%) | 3 (Herbicidal rate of 40% or more and less than 70%) | 4 (Herbicidal rate of 70% or more and less than 90%) | 0 (Herbicidal rate of 5% or less (almost no effect)) | 5 (Herbicidal rate of 90% or more (almost completely withered)) | 3 (Herbicidal rate of 40% or more and less than 70%) | 0 (Herbicidal rate of 5% or less (almost no effect)) | 4 (Herbicidal rate of 70% or more and less than 90%) | 5 (Herbicidal rate of 90% or more (almost completely withered)) | 4 (Herbicidal rate of 70% or more and less than 90%) | 2 (Herbicidal rate of 20% or more and less than 40%) | 4 (Herbicidal rate of 70% or more and less than 90%) | 3 (Herbicidal rate of 40% or more and less than 70%) | 5 (Herbicidal rate of 90% or more (almost completely withered)) | 3 (Herbicidal rate of 40% or more and less than 70%) | 3 (Herbicidal rate of 40% or more and less than 70%)
